Measurements taken from ChEMBL document CHEMBL2311414, “Synthesis, antimalarial activity and cytotoxic potential of new monocarbonyl analogues of curcumin” (Bioorg Med Chem Lett, 2013).

Assays:
Plasmodium falciparum [1] = assay: Antimalarial activity against chloroquine-sensitive Plasmodium falciparum D6 infected in RBC assessed as plasmodial LDH activity after 72 hrs; assay type: functional, organism-based
Plasmodium falciparum [2] = assay: Antimalarial activity against chloroquine-resistant Plasmodium falciparum W2 infected in RBC assessed as plasmodial LDH activity after 72 hrs; assay type: functional, organism-based
Vero = assay: Cytotoxicity against african green monkey Vero cells up to 9 uM after 48 hrs by neutral red assay; assay type: cell-based; settings: chlorocebus sabaeus
HeLa = assay: Cytotoxicity against human HeLa cells after 48 hrs by MTT assay; assay type: functional, cell-based
MOLT-4 = assay: Cytotoxicity against human MOLT4 cells after 48 hrs by MTT assay; assay type: functional, cell-based; settings: MOLT-4, 48 h
KB = assay: Cytotoxicity against human KB cells after 48 hrs by MTT assay; assay type: functional, cell-based
PC-3 = assay: Cytotoxicity against human PC3 cells after 48 hrs by MTT assay; assay type: functional, cell-based; settings: PC-3, 48 h
DU-145 = assay: Cytotoxicity against human DU145 cells after 48 hrs by MTT assay; assay type: functional, cell-based; settings: DU-145, 48 h
[3] = Selectivity index, ratio of IC50 for african green monkey Vero cells to IC50 for chloroquine-sensitive Plasmodium falciparum D6; assay type: toxicity, cell-based; settings: read-out: Ratio IC50
[4] = Selectivity index, ratio of IC50 for african green monkey Vero cells to IC50 for chloroquine-resistant Plasmodium falciparum W2; assay type: toxicity, cell-based; settings: read-out: Ratio IC50
[5] = Plasmodium falciparum, D6, 72 h, read-out: IC50
[6] = Plasmodium falciparum, W2, 72 h, read-out: IC50

| SMILES | IC50 (Plasmodium falciparum [1]) | IC50 (Plasmodium falciparum [2]) | Activity (Vero) | IC50 (HeLa) | IC50 (MOLT-4) | IC50 (KB) | IC50 (PC-3) | IC50 (DU-145) | IC50 (Plasmodium falciparum [1]; [5]) | IC50 (Plasmodium falciparum [2]; [6]) | selectivity ratio [3] | selectivity ratio [4] |
| --- | --- | --- | --- | --- | --- | --- | --- | --- | --- | --- | --- | --- |
| O=C1/C(=C/c2ccc(OCCCCN3CCOCC3)cc2)CCC/C1=C\c1ccc(OCCCCN2CCOCC2)cc1 | Not Active | Not Active | Non-toxic |  |  |  |  |  |  |  |  |  |
| CN(C)CCCCOc1ccc(/C=C2\CC/C(=C\c3ccc(OCCCCN(C)C)cc3)C2=O)cc1 |  |  |  | 6800 nM | 330 nM | 1650 nM | 2900 nM | 4400 nM |  |  |  |  |
| COc1cc(/C=C2\CC/C(=C\c3ccc(OCCn4ccnc4)c(OC)c3)C2=O)ccc1OCCn1ccnc1 |  |  | Non-toxic |  |  |  |  |  | 2210 nM | 1810 nM | > 4 | > 4.9 |
| O=C1/C(=C/c2ccc(OCCCCn3ccnc3)cc2)CC/C1=C\c1ccc(OCCCCn2ccnc2)cc1 |  |  | Non-toxic |  |  |  |  |  | 2040 nM | 3540 nM | > 4.3 | > 2.5 |
| COc1cc(/C=C2\CC/C(=C\c3ccc(OCCN(C)C)c(OC)c3)C2=O)ccc1OCCN(C)C |  |  | Non-toxic | 500 nM | 30 nM | > 5000 nM | > 5000 nM | > 5000 nM | 440 nM | 620 nM | > 21.6 | > 15.4 |
| COc1cc(/C=C2\CCC/C(=C\c3ccc(OCCCN4CCCCC4)c(OC)c3)C2=O)ccc1OCCCN1CCCCC1 |  |  |  | 1950 nM | 550 nM | 1650 nM | 6910 nM | 2050 nM |  |  |  |  |
| COc1cc(/C=C2\CC/C(=C\c3ccc(OCCN4CCOCC4)c(OC)c3)C2=O)ccc1OCCN1CCOCC1 |  |  | Non-toxic |  |  |  |  |  | 3110 nM | 2410 nM | > 2.6 | > 3.4 |
| O=C1/C(=C/c2ccc(OCCCCN3CCCCC3)cc2)CCC/C1=C\c1ccc(OCCCCN2CCCCC2)cc1 |  |  |  | 3630 nM | 730 nM | 2540 nM | 1530 nM | 2110 nM |  |  |  |  |
| COc1cc(/C=C2\CC/C(=C\c3ccc(OCCBr)c(OC)c3)C2=O)ccc1OCCBr | Not Active | Not Active | Non-toxic |  |  |  |  |  |  |  |  |  |
| Cc1nccn1CCCCOc1ccc(/C=C2\CC/C(=C\c3ccc(OCCCCn4ccnc4C)cc3)C2=O)cc1 |  |  | Non-toxic |  |  |  |  |  | 1090 nM | 1410 nM | > 7.7 | > 6 |
| COc1cc(/C=C2\CC/C(=C\c3ccc(OCCCCN4CCCCCC4)c(OC)c3)C2=O)ccc1OCCCCN1CCCCCC1 |  |  | Non-toxic | 1390 nM | 410 nM | 2250 nM | 300 nM | 1010 nM | 1360 nM | 1820 nM | > 5.3 | > 4 |
| COc1cc(/C=C2\CC/C(=C\c3ccc(OCCCCn4ccnc4C)c(OC)c3)C2=O)ccc1OCCCCn1ccnc1C |  |  | Non-toxic |  |  |  |  |  | 4000 nM | 4480 nM | > 1.9 | > 1.7 |
| Cc1nccn1CCOc1ccc(/C=C2\CC/C(=C\c3ccc(OCCn4ccnc4C)cc3)C2=O)cc1 |  |  | Non-toxic |  |  |  |  |  | 350 nM | 430 nM | > 26.4 | > 21.6 |
| COc1cc(/C=C2\CC/C(=C\c3ccc(OCCCn4ccnc4C)c(OC)c3)C2=O)ccc1OCCCn1ccnc1C |  |  | Non-toxic | 3150 nM | 660 nM | 1990 nM | 200 nM | 3900 nM | 2010 nM | 3010 nM | > 4 | > 2.6 |
| O=C1/C(=C/c2ccc(OCCn3ccnc3)cc2)CC/C1=C\c1ccc(OCCn2ccnc2)cc1 |  |  | Non-toxic |  |  |  |  |  | 450 nM | 370 nM | > 21.6 | > 26.4 |
| COc1cc(/C=C2\CC/C(=C\c3ccc(OCCCN(C)C)c(OC)c3)C2=O)ccc1OCCCN(C)C |  |  | Non-toxic | 640 nM | 430 nM | 200 nM | 1500 nM | 430 nM | 1140 nM | 1530 nM | > 7.9 | > 6 |
| COc1cc(/C=C2\CC/C(=C\c3ccc(OCCn4ccnc4C)c(OC)c3)C2=O)ccc1OCCn1ccnc1C |  |  | Non-toxic | 900 nM | 100 nM | 3400 nM | > 5000 nM | > 5000 nM | 1280 nM | 1380 nM | > 6.5 | > 6 |
| CCN(CC)CCCC(C)Nc1ccnc2cc(Cl)ccc12 (configuration not stated) [CHLOROQUINE] |  |  | Non-toxic |  |  |  |  |  |  |  |  |  |
| C[C@@H]1CC[C@H]2[C@@H](C)C(=O)O[C@@H]3O[C@@]4(C)CC[C@@H]1[C@]32OO4 [ARTEMISININ] |  |  | Non-toxic |  |  |  |  |  | 19 nM | 11 nM | > 470 | > 800 |
| COc1cc(/C=C2\CC/C(=C\c3ccc(OCCCCn4ccnc4)c(OC)c3)C2=O)ccc1OCCCCn1ccnc1 |  |  | Non-toxic |  |  |  |  |  | 530 nM | 560 nM | > 14.9 | > 14 |
| COc1cc(/C=C2\CC/C(=C\c3ccc(OCCN4CCCCC4)c(OC)c3)C2=O)ccc1OCCN1CCCCC1 |  |  | Non-toxic | 400 nM | 20 nM | 4400 nM | > 5000 nM | > 5000 nM | 500 nM | 530 nM | > 16.4 | > 15.4 |
| O=C1/C(=C/c2ccc(OCCCCN3CCOCC3)cc2)CC/C1=C\c1ccc(OCCCCN2CCOCC2)cc1 | Not Active | Not Active | Non-toxic |  |  |  |  |  |  |  |  |  |
| COc1cc(/C=C2\CC/C(=C\c3ccc(OCCCn4ccnc4)c(OC)c3)C2=O)ccc1OCCCn1ccnc1 | Not Active | Not Active | Non-toxic |  |  |  |  |  |  |  |  |  |
| COc1cc(/C=C2\CC/C(=C\c3ccc(OCCCCN4CCCCC4)c(OC)c3)C2=O)ccc1OCCCCN1CCCCC1 |  |  | Non-toxic | 490 nM | 320 nM | 550 nM | 500 nM | 460 nM | 1740 nM | 2850 nM | > 4.3 | > 2.6 |
| COc1cccc2c1C(=O)c1c(O)c3c(c(O)c1C2=O)C[C@@](O)(C(=O)CO)C[C@@H]3O[C@H]1C[C@H](N)[C@H](O)[C@H](C)O1 [DOXORUBICIN] |  |  |  | 2200 nM |  | 330 nM | 200 nM | 200 nM |  |  |  |  |
| COc1cc(/C=C2\CC/C(=C\c3ccc(OCCCCN4CCOCC4)c(OC)c3)C2=O)ccc1OCCCCN1CCOCC1 |  |  | Non-toxic | 720 nM | 360 nM | 620 nM | 280 nM | 670 nM | 690 nM | 630 nM | > 10.8 | > 11.9 |
